Results reported in US9220721B2, “Methods for heart regeneration” (The Salk Institute for Biological Studies, priority 2012, dated 2015).

Test system: cmlc2:GFP transgenic fish embryos
Test: Morpholino and microRNA injections in zebrafish embryos
Format: in vivo
Details: injection at one-cell stage
Procedure: Morpholino and microRNA Injections in Zebrafish Embryos. Morpholinos (Gene Tools) were dissolved in water at a 2 mM stock concentration and diluted to a 2 ng/nl working concentration in PBS/phenol red solution. Embryo injections were performed by injecting ˜1 nl morpholino solution at the 1-cell stage using a FemtoJet (Eppendorf). For microRNA mimic injection, a miR-99/100 equimolar mixture at 2 ng/nl in PBS was employed. Morphants were evaluated at 24, 48 and 72 h in a StereoLumar stereoscope (Zeiss).

Substance	ventricle size
Fntb morpholino: translation-blocking morpholino 5′-GCGCCTCTTCCATGATGAGCTCTCA-3′ (SEQ ID NO: 1128) (all phosphorodiamidate morpholino (PMO))	significantly reduced ventricle size
Smarca5 morpholino: translation-blocking morpholino 5′-CTTCTTCCCGCTGCTGCTCCATGCT-3′ (SEQ ID NO: 1129) (all phosphorodiamidate morpholino (PMO))	significantly reduced ventricle size
